Measured values from publication PMC3831706 (British Journal of Pharmacology, 2013).

Biological target: T1, 5-HT3A receptor (Homo sapiens, UniProt P46098)
T1 construct: gene HTR3A
T1 sequence (P46098 24-478): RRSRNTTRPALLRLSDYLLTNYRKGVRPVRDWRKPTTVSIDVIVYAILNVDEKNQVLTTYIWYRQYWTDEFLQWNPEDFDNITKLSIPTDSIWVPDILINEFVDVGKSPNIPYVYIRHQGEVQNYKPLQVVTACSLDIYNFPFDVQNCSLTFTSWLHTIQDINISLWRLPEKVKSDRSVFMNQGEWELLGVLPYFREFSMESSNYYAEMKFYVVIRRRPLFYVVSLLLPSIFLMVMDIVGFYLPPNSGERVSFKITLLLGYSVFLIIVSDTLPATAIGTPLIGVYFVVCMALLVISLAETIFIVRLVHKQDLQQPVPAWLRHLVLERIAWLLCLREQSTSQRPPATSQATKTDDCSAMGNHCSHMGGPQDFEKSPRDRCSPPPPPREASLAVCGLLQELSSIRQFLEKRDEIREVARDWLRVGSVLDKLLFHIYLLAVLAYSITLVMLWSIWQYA
Assay: cell-based

O=C1c2cccc3c2[C@H](CCC3)CN1[C@@H]1CN2CCC1CC2 [PAL, palonosetron] gave a Ki of 0.22 ± 0.07 nM.
